What was measured:
Assay type in all cases: cell-based
panel of 10 commensals = test: Sugar-supported growth, whole panel of 10 commensals; details: 0.5% w/v sugar, summary in words
Experimental: (§1) An in vitro assay was performed to assess the ability of various bacterial strains, including commensals of the gastrointestinal tract, to utilize different sugars as growth substrates. This assay was designed to assess the ability of selected natural monosaccharides, disaccharides and synthetic sugars to promote the growth of microbiota associated with a healthy state. Bacterial strains were handled at all steps in an anaerobic chamber (AS-580, Anaerobe Systems) featuring a palladium catalyst. The chamber was initially made anaerobic by purging with an anaerobic gas mixture of 5% hydrogen, 5% carbon dioxide and 90% nitrogen and subsequently maintained in an anaerobic state using this same anaerobic gas mixture. Anaerobicity of the chamber was confirmed daily using Oxoid anaerobic indicator strips that change color in the presence of oxygen. All culture media, assay plates, other reagents and plastic consumables were pre-reduced in the anaerobic chamber for 24-48 hours prior to contact with bacteria. Sugars were prepared at 5% w/v in water, filter-sterilized and added to Costar 3370 assay plates for a final concentration of 0.5% w/v in the assay, with each microbiome regulator assayed in two non-adjacent wells and dextrose and water supplied as positive and negative controls.
(§2) Bacterial isolates were obtained from the American Type Culture Collection (ATCC) and Leibniz Institute DSMZ-German Institute of Microorganisms and Cell Cultures (DSMZ). Cultures of the Bacteroidetes Bacteroides caccae ATCC 43185 “BCA.26”, Bacteroides thetaiotaomicron ATCC 29741 “BTH.8”, Bacteroides cellulosilyticus DSM 14838 “BCE.71”, Parabacteroides distasonis ATCC 8503 “PDI.6” and Prevotella copri DSM 18205 “PCO.72”; the Clostridiales Clostridium scindens ATCC 35704 “CSC.32”, Dorea formicigenerans ATCC 27755 “DFO.36” and Ruminococcus obeum ATCC 29714 “ROB.74”; and the Bifidobacteria Bifidobacterium longum ATCC 15707 “BLO.16” and Bifidobacterium longum DSM 20088 “BLO.83”, were grown anaerobically in Chopped Meat Glucose broth (CMG, Anaerobe Systems), a pre-reduced enriched medium including lean ground beef, enzymatic digest of casein, yeast extract, potassium phosphate, dextrose, cysteine, hemin and Vitamin K1, for 18-48 hours at 37° C. Inocula were prepared by determining the optical density of each culture at […] (OD600) in a Costar 3370 polystyrene 96-well flat-bottom assay plate using a Biotek Synergy 2 plate reader with Gen5 2.0 All-In-One Microplate Reader Software according to manufacturer's protocol, and diluting the cells to OD600 0.01 final in defined and semi-defined media that were prepared without sugars. D. formicigenerans, P. distasonis and B. longum isolates were tested in 900 mg/L sodium chloride, 26 mg/L calcium chloride dihydrate, 20 mg/L magnesium chloride hexahydrate, 10 mg/L manganese chloride tetrahydrate, 40 mg/L ammonium sulfate, 4 mg/L iron sulfate heptahydrate, 1 mg/L cobalt chloride hexahydrate, 300 mg/L potassium phosphate dibasic, 1.5 g/L sodium phosphate dibasic, 5 g/L sodium bicarbonate, 0.125 mg/L biotin, 1 mg/L pyridoxine, […], 75 mg/L histidine, 75 mg/L glycine, 75 mg/L tryptophan, 150 mg/L arginine, 150 mg/L methionine, 150 mg/L threonine, 225 mg/L valine, 225 mg/L isoleucine, 300 mg/L leucine, 400 mg/L cysteine, and 450 mg/L proline (Theriot C M et al. Nat Commun. 2014; 5:3114), supplemented with 0-3.5% (v/v) CMG. B. thetaiotaomicron, B. caccae and B. cellulosyliticus were tested in 100 mM potassium phosphate buffer (pH 7.2), 15 mM sodium chloride, 8.5 mM ammonium sulfate, 4 mM L-cysteine, 1.9 μM hematin, 200 μM L-histidine, 100 μM magnesium chloride, 1.4 μM iron sulfate heptahydrate, 50 μM calcium chloride, 1 μg/mL vitamin K3 and 5 ng/mL vitamin B12 (Martens E C et al. Cell Host & Microbe 2008; 4, 447-457). […]

[1] = test system: Bacteroides thetaiotaomicron ATCC 29741 "BTH.8"; test: Sugar-supported growth of commensal bacteria, BTH.8; details: 0.5% w/v sugar, 37° C., 18-24 hours, anaerobic; OD600 divided by OD600 with 0.5% w/v dextrose
Experimental: as §1, §2

[2] = test system: Bacteroides cellulosilyticus DSM 14838 "BCE.71"; test: Sugar-supported growth of commensal bacteria, BCE.71; details: 0.5% w/v sugar, 37° C., 18-24 hours, anaerobic; OD600 divided by OD600 with 0.5% w/v dextrose
Experimental: as §1, §2

[3] = test system: Bacteroides caccae ATCC 43185 "BCA.26"; test: Sugar-supported growth of commensal bacteria, BCA.26; details: 0.5% w/v sugar, 37° C., 18-24 hours, anaerobic; OD600 divided by OD600 with 0.5% w/v dextrose
Experimental: as §1, §2

[4] = test system: Parabacteroides distasonis ATCC 8503 "PDI.6"; test: Sugar-supported growth of commensal bacteria, PDI.6; details: 0.5% w/v sugar, 37° C., 18-24 hours, anaerobic; OD600 divided by OD600 with 0.5% w/v dextrose
Experimental: as §1, §2

[5] = test system: Prevotella copri DSM 18205 "PCO.72"; test: Sugar-supported growth of commensal bacteria, PCO.72; details: 0.5% w/v sugar, 37° C., 18-24 hours, anaerobic; OD600 divided by OD600 with 0.5% w/v dextrose
Experimental: as §1, §2

[6] = test system: Clostridium scindens ATCC 35704 "CSC.32"; test: Sugar-supported growth of commensal bacteria, CSC.32; details: 0.5% w/v sugar, 37° C., 18-24 hours, anaerobic; OD600 divided by OD600 with 0.5% w/v dextrose
Experimental: as §1, §2

[7] = test system: Bifidobacterium longum ATCC 15707 "BLO.16"; test: Sugar-supported growth of commensal bacteria, BLO.16; details: 0.5% w/v sugar, 37° C., 18-24 hours, anaerobic; OD600 divided by OD600 with 0.5% w/v dextrose
Experimental: as §1, §2

[8] = test system: Dorea formicigenerans ATCC 27755 "DFO.36"; test: Sugar-supported growth of commensal bacteria, DFO.36; details: 0.5% w/v sugar, 37° C., 18-24 hours, anaerobic; OD600 divided by OD600 with 0.5% w/v dextrose
Experimental: as §1, §2

[9] = test system: Ruminococcus obeum ATCC 29714 "ROB.74"; test: Sugar-supported growth of commensal bacteria, ROB.74; details: 0.5% w/v sugar, 37° C., 18-24 hours, anaerobic; OD600 divided by OD600 with 0.5% w/v dextrose
Experimental: as §1, §2

SMILES	taxa or strains of the commensal panel whose growth was supported (panel of 10 commensals)	Average Normalized Growth (NGV), BTH.8 [1]	Average Normalized Growth (NGV), BCE.71 [2]	Average Normalized Growth (NGV), BCA.26 [3]	Average Normalized Growth (NGV), PDI.6 [4]	Average Normalized Growth (NGV), PCO.72 [5]	Average Normalized Growth (NGV), CSC.32 [6]	Average Normalized Growth (NGV), BLO.16 [7]	Average Normalized Growth (NGV), DFO.36 [8]	Average Normalized Growth (NGV), ROB.74 [9]
OC[C@H]1O[C@@H](O[C@@H]2[C@@H](CO)OC(O)(CO)[C@H]2O)[C@H](O)[C@@H](O)[C@H]1O (mixture of isomers) [lactulose]	supported growth of some strains from the taxa Bacteroidetes and Bifidobacteria	− (<0.2)	++ (0.6-1)	++ (0.6-1)	+ (0.2-0.6)	++ (0.6-1)	− (<0.2)	–	–	–
OC[C@H]1O[C@H](O[C@H]2[C@H](O)[C@@H](O)[C@H](O)O[C@@H]2CO)[C@H](O)[C@@H](O)[C@@H]1O [D (+) maltose]	supported some commensals from the taxa Bacteroidetes, Firmicutes, including Lachnospiraceae, and Bifidobacteria	+++ (>1)	++ (0.6-1)	+ (0.2-0.6)	++ (0.6-1)	+++ (>1)	− (<0.2)	+++ (>1)	+++ (>1)	–
O=C[C@@H](O)[C@H](O)[C@H](O)CO [D (−) arabinose]	supported some commensals from the taxa Bacteroidetes and Firmicutes	++ (0.6-1)	+ (0.2-0.6)	++ (0.6-1)	− (<0.2)	− (<0.2)	++ (0.6-1)	− (<0.2)	− (<0.2)	++ (0.6-1)
OC[C@@H](O)[C@@H](O)[C@H](O)[C@H](O)CO [D-mannitol]	supported growth of CSC.32 alone among the panel of 10 commensals	− (<0.2)	− (<0.2)	− (<0.2)	− (<0.2)	− (<0.2)	+ (0.2-0.6)	− (<0.2)	–	–
O=C[C@@H](O)[C@@H](O)[C@H](O)[C@H](O)CO [D-mannose]	supported some commensals from the taxa Bacteroidetes and Firmicutes	+++ (>1)	+++ (>1)	+++ (>1)	+++ (>1)	− (<0.2)	+ (0.2-0.6)	− (<0.2)	− (<0.2)	++ (0.6-1)
OC[C@@H](O)[C@@H](O)[C@H](O)[C@@H](O)CO [D-sorbitol]	supported growth of CSC.32 alone among the panel of 10 commensals	–	–	–	–	–	–	–	–	–
O=C[C@H](O)[C@@H](O)[C@H](O)CO [D-xylose]	supported some commensals from the taxa Bacteroidetes and Bifidobacteria	+++ (>1)	++ (0.6-1)	+++ (>1)	+ (0.2-0.6)	++ (0.6-1)	− (<0.2)	++ (0.6-1)	− (<0.2)	− (<0.2)
C[C@H](O)[C@@H](O)[C@@H](O)[C@H](O)C=O [L-fucose]	supported some commensals from the taxa Bacteroidetes and Firmicutes	+ (0.2-0.6)	+ (0.2-0.6)	+++ (>1)	− (<0.2)	− (<0.2)	− (<0.2)	− (<0.2)	− (<0.2)	++ (0.6-1)
O=C[C@H](O)[C@H](O)[C@H](O)CO [ribose]	supported some commensals from the taxa Bacteroidetes and Firmicutes	− (<0.2)	+ (0.2-0.6)	− (<0.2)	+++ (>1)	− (<0.2)	+++ (>1)	− (<0.2)	+++ (>1)	− (<0.2)
OC[C@H]1O[C@H](O[C@]2(CCl)O[C@H](CCl)[C@@H](O)[C@@H]2O)[C@H](O)[C@@H](O)[C@H]1Cl [sucralose]	supported growth of PCO.72 alone among the panel of 10 commensals	–	–	–	–	–	–	–	–	–
OC[C@H]1O[C@@](CO)(O[C@H]2O[C@H](CO)[C@@H](O)[C@H](O)[C@H]2O)[C@@H](O)[C@@H]1O [sucrose]	supported some commensals from the taxa Bacteroidetes, Firmicutes, including Lachnospiraceae, and Bifidobacteria	–	–	–	–	–	–	–	–	–

Reference: US20200009168A1, “MICROBIOME REGULATORS AND RELATED USES THEREOF” (KALEIDO BIOSCIENCES, INC., priority 2015, published 2020)
